The text below walks through data of PubChem BioAssay (NCI).

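Growth conditions: 96-well plates. Treatment: test compound, 48 hours, 5 concentrations. Analysis: linear interpolation between bracketing concentrations; unreached endpoints set to highest concentration. GI50 is the concentration that inhibits growth by half. TGI: total growth inhibition.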 A value given as a limit tells only on which side of the number the result lay.

Some test systems named below: HCC-2998 colon; DU-145 prostate; PC-3 prostate; T-47D breast; SK-MEL-5 melanoma; NCI-H522 lung; HOP-92 NSCLC; NCI-H23 lung; UACC-62 melanoma; HL-60(TB) leukemia.
Common to all, as to experiment: NCI tumour cell line growth inhibition, 48 h

Consider `N#Cc1ccc(NC(=O)Nc2ccc(Oc3ccc(NC(=O)Nc4ccc(C#N)cc4)cc3)cc2)cc1`, for which the GI50 in the assay on HCC-2998 colon is 0.764 µM; with DU-145 prostate, 31.2 µM; in the assay on PC-3 prostate, 25.6 µM; with T-47D breast, 0.622 µM; in the assay on SK-MEL-5 melanoma, 20.2 µM; in the assay on NCI-H522 lung, 10.9 µM. Also, the GI50 with HOP-92 NSCLC was 13.3 µM; in the assay with NCI-H23 lung it was 6.53 µM; in the assay with UACC-62 melanoma, 11.1 µM; in the assay with HL-60(TB) leukemia, 1.17 µM. Moreover, the TGI in the assay on HCC-2998 colon was 7.53 µM; with DU-145 prostate, greater than 100 µM; in the assay on PC-3 prostate it was greater than 100 µM; in the assay with T-47D breast, 31.6 µM; with SK-MEL-5 melanoma, greater than 100 µM; in the assay on NCI-H522 lung, 95.5 µM. Further, the TGI is 62.7 µM with HOP-92 NSCLC, 56.5 µM in the assay on NCI-H23 lung, greater than 100 µM with UACC-62 melanoma and 83.8 µM in the assay with HL-60(TB) leukemia.

Regarding `C=C1C(=O)O[C@H]2[C@H]1CC/C(Cn1cc(-c3ccc(OC)cc3)nn1)=C\CC[C@@]1(C)O[C@@H]21`, the GI50 with HCC-2998 colon was 1.98 µM; in the assay on DU-145 prostate it was 1.11 µM; in the assay with PC-3 prostate it was 9.35 µM; in the assay with T-47D breast it was 1.43 µM; in the assay with SK-MEL-5 melanoma it was 2.1 µM; in the assay with NCI-H522 lung it was 0.387 µM. Besides, the GI50 in the assay with HOP-92 NSCLC is 1.13 µM; in the assay with NCI-H23 lung it was 2.06 µM; in the assay with UACC-62 melanoma, 1.35 µM; in the assay on HL-60(TB) leukemia it was 1.17 µM. Moreover, the TGI amounted to 3.64 µM in the assay on HCC-2998 colon; 2.32 µM in the assay with DU-145 prostate; 22.2 µM with PC-3 prostate; 3.08 µM with T-47D breast; 4.69 µM with SK-MEL-5 melanoma; 1.73 µM in the assay with NCI-H522 lung. Besides, the TGI in the assay with HOP-92 NSCLC came to 2.69 µM; in the assay with NCI-H23 lung, 4.58 µM; in the assay with UACC-62 melanoma, 2.99 µM; in the assay on HL-60(TB) leukemia it was 3.86 µM.

`COc1ccc(NC2=CC(=O)C(=O)c3ccccc32)nn1`: the TGI came out at 21.2 µM in the assay on HCC-2998 colon; 3.19 µM with DU-145 prostate; 38.9 µM in the assay on PC-3 prostate; 11.9 µM in the assay with T-47D breast; 2 µM in the assay with SK-MEL-5 melanoma; 2.16 µM with NCI-H522 lung. Also, the TGI worked out at 6.2 µM in the assay on NCI-H23 lung, 3.01 µM in the assay with UACC-62 melanoma and 0.898 µM with HL-60(TB) leukemia.

As for `CCN(CC)c1ccc(/C=C/c2ccc3cc(C)ccc3[n+]2CC)cc1`, the GI50 with HCC-2998 colon was 0.197 µM; in the assay with DU-145 prostate, 0.0942 µM; in the assay with PC-3 prostate it was 0.0664 µM; in the assay with T-47D breast, 0.0182 µM; in the assay with SK-MEL-5 melanoma it was 0.0493 µM; in the assay with NCI-H522 lung it was 0.0835 µM. The GI50 is 0.147 µM in the assay on HOP-92 NSCLC, 0.0303 µM in the assay on NCI-H23 lung, 0.152 µM in the assay with UACC-62 melanoma and 0.0297 µM in the assay on HL-60(TB) leukemia. In addition, the TGI in the assay with HCC-2998 colon was 15.3 µM; with DU-145 prostate it was 12.7 µM; in the assay with PC-3 prostate it was 6.17 µM; in the assay with T-47D breast it was 1.41 µM; in the assay on SK-MEL-5 melanoma, 0.261 µM; with NCI-H522 lung, 2.55 µM. Besides, the TGI in the assay with HOP-92 NSCLC was 0.87 µM; in the assay with NCI-H23 lung, 12.5 µM; in the assay on UACC-62 melanoma it was 1.37 µM; in the assay with HL-60(TB) leukemia, 0.429 µM.

With `C[C@]12CC[C@H]3[C@@H](CC=C4C[C@@H](O)CC[C@@]43C)[C@@H]1CC[C@@H]2N(CCO)CCO`, the TGI in the assay on HCC-2998 colon is 94.9 µM; in the assay on DU-145 prostate, greater than 100 µM; in the assay on PC-3 prostate it was greater than 100 µM; in the assay on T-47D breast it was greater than 100 µM; in the assay with SK-MEL-5 melanoma, greater than 100 µM; with NCI-H522 lung it was greater than 100 µM. Also, the TGI in the assay with HOP-92 NSCLC, with NCI-H23 lung and in the assay on UACC-62 melanoma was greater than 100 µM each time.

For `Oc1c(CN2CCC(N3CCCCC3)CC2)cc(Cc2cc(CN3CCC(N4CCCCC4)CC3)c(O)c3ncccc23)c2cccnc12`, the GI50 in the assay on HCC-2998 colon was 1.19 µM; in the assay with DU-145 prostate, 0.871 µM; in the assay on PC-3 prostate, 1.28 µM; in the assay with T-47D breast, 0.51 µM; with SK-MEL-5 melanoma, 1.15 µM; in the assay with NCI-H522 lung, 1.39 µM. In addition, the GI50 was 3.38 µM with HOP-92 NSCLC, 2.28 µM with NCI-H23 lung and 0.609 µM in the assay on UACC-62 melanoma. Moreover, the TGI in the assay on HCC-2998 colon stood at 6.15 µM; in the assay on DU-145 prostate, 16.1 µM; with PC-3 prostate, 15.9 µM; in the assay on T-47D breast, 4.8 µM; in the assay on SK-MEL-5 melanoma, 2.59 µM; with NCI-H522 lung it was 3.63 µM. The TGI came out at 21 µM in the assay with HOP-92 NSCLC, 14 µM with NCI-H23 lung and 5.17 µM in the assay with UACC-62 melanoma.

With `Nc1cc(N)c2nc(-c3ccccc3)c(Nc3ccc(Cl)c(Cl)c3)nc2c1`, the GI50 was 16.7 µM with DU-145 prostate; 3.12 µM in the assay on PC-3 prostate; 11.6 µM with T-47D breast; 11 µM with SK-MEL-5 melanoma; 5.3 µM in the assay with NCI-H522 lung; 19.1 µM in the assay with NCI-H23 lung. Also, the values for the GI50 with UACC-62 melanoma and in the assay with HL-60(TB) leukemia were 13.1 µM and 2.59 µM, respectively. Also, the TGI in the assay on DU-145 prostate came out at 32.6 µM; in the assay on PC-3 prostate it was 15.1 µM; in the assay on T-47D breast, 31.1 µM; with SK-MEL-5 melanoma it was 25.5 µM; with NCI-H522 lung, 21.7 µM; with NCI-H23 lung, 55.2 µM. Further, the results for the TGI with UACC-62 melanoma and with HL-60(TB) leukemia were 29.9 µM and 71.7 µM, respectively.

`Nc1nc(Cl)c2ncn(Cc3ccc(C45CC6CC(CC(C6)C4)C5)c(O)c3)c2n1`: the GI50 was 2.26 µM in the assay with HCC-2998 colon; 3.14 µM with DU-145 prostate; 1.73 µM with PC-3 prostate; 3.75 µM with T-47D breast; 0.558 µM in the assay with SK-MEL-5 melanoma; 6.01 µM in the assay with NCI-H522 lung. The GI50 with HOP-92 NSCLC was 1.48 µM; with UACC-62 melanoma, 4.07 µM; with HL-60(TB) leukemia, 1.22 µM. Also, the TGI was 8.34 µM in the assay with HCC-2998 colon; 11.8 µM in the assay on DU-145 prostate; 4.44 µM with PC-3 prostate; 24.5 µM in the assay on T-47D breast; 11 µM with SK-MEL-5 melanoma; 23.8 µM in the assay on NCI-H522 lung. Also, the TGI in the assay on HOP-92 NSCLC worked out at 6.19 µM; in the assay with UACC-62 melanoma it was 18.5 µM; with HL-60(TB) leukemia, 11.7 µM.
